Converted amounts (≈) assume the structure as drawn. Where two headings read alike, the source gives them in different places.
Tests used:
[1] = cited from earlier work
A. baumannii N16870 [2] = experiment: Minimum inhibitory concentration, clinical isolate A. baumannii N16870; type: cell-based, Acinetobacter baumannii
[3] = system: Pseudomonas aeruginosa 19147; experiment: Minimum inhibitory concentration, clinical isolate Pseudomonas aeruginosa 19147; type: cell-based
A. baumannii N16870 [4] = experiment: Time-kill assay against A. baumannii N16870; type: cell-based, Acinetobacter baumannii; conditions: for time-kill antibacterial activity, monotherapy (summary): considerable regrowth except colistin at 48 mg/L
Protocol: (§1) Time-kill studies were conducted for meropenem, colistin and three combinations (Colistin:Meropenem_1:3, Colistin:Meropenem_1:1 and Colistin:Meropenem_3:1) against A. baumannii N16870 and P. aeruginosa 19147. All experiments were performed with an initial inoculum of ˜10^6 CFU/mL in 20 mL of Cation-Adjusted Mueller-Hinton Broth (CAMHB) in 50 mL pyrogen-free and sterile polypropylene tubes. Serial samples (50 μL) were collected at 0, 1, 2, 4, and 24 h for viable counting on nutrient agar plates and the limit of detection was 20 CFU/mL. A ProtoCOL automated colony counter (Synbiosis, Cambridge, United Kingdom) was used to quantify bacteria after 24 h of incubation at 37° C. Bacterial growth was measured after 0, 1, 2, 4 and 24 h of incubation at 37° C. A growth control without antibiotic was also tested.

P. aeruginosa 19147 = experiment: Time-kill assay against P. aeruginosa 19147; type: cell-based, Pseudomonas aeruginosa; conditions: for time-kill antibacterial activity, monotherapy (summary): considerable regrowth; for complete bacterial killing in time-kill: monotherapy, e.g. 192 mg/L, at 24 h
Protocol: as §1

[5] = monotherapy 16 mg/L, up to 24 h

For `C[C@@H](O)[C@H]1C(=O)N2C(C(=O)O)=C(S[C@@H]3CN[C@H](C(=O)N(C)C)C3)[C@H](C)[C@H]12` [meropenem], the water solubility [1] is listed as “approximately 16.4 mg/mL”, the MIC (A. baumannii N16870 [2]; Acinetobacter baumannii) is listed as 16 µg/mL (≈ 41.7 µM) and the MIC ([3]; read-out: MIC) is listed as 16 µg/mL (≈ 41.7 µM). The time-kill antibacterial effect (A. baumannii N16870 [4]; [5]) was “no antibacterial effect”, the regrowth in time-kill (A. baumannii N16870 [4]; monotherapy 48 mg/L) was “regrowth was observed in 4 h” and the time-kill antibacterial effect (A. baumannii N16870 [4]; monotherapy 48 mg/L) was “marginal antibacterial activity”. For the same compound, the “time-kill antibacterial activity, monotherapy (summary)” value (“time-kill antibacterial activity” below) (A. baumannii N16870 [4]) was “weak antibacterial activity”, the “time-kill antibacterial activity” value (P. aeruginosa 19147) was “weak antibacterial activity” and the “complete bacterial killing in time-kill” value (P. aeruginosa 19147) was “complete killing could not be achieved”.

In the case of colistin, the “minimum inhibitory concentration [MIC]” value (A. baumannii N16870 [2]) is reported as 0.5 µg/mL, the MIC [3] is reported as 0.5 µg/mL and the regrowth in time-kill (A. baumannii N16870 [4]; monotherapy 16 mg/L) is reported as “regrowth was evident in 4 h”. For the same compound, the time-kill antibacterial effect (A. baumannii N16870 [4]; [5]) was “bacterial killing”, the time-kill antibacterial effect (A. baumannii N16870 [4]; monotherapy 48 mg/L) was “bacterial killing” and the “time-kill antibacterial activity” value (A. baumannii N16870 [4]) was “weak antibacterial activity”. For the same compound, the “time-kill antibacterial activity” value (P. aeruginosa 19147) was “weak antibacterial activity” and the “complete bacterial killing in time-kill” value (P. aeruginosa 19147) was “complete killing could not be achieved”.
